How the values were obtained:
[1] = molecular target: Vascular endothelial growth factor receptor 2 (Homo sapiens, UniProt P35968); experiment: Inhibition of recombinant KDR by HTRF assay
[2] = tested on: HUVEC; experiment: Inhibition of bFGF-stimulated HUVEC cell proliferation treated before 2 hrs of bFGF challenge assessed after 72 hrs; type: functional, cell-based; details: Homo sapiens
[3] = Clearance in Sprague-Dawley rat at 1 mg/kg, iv or 10 mg/kg, po; type: ADME, organism-based; details: in vivo
[4] = Half life in Sprague-Dawley rat at 1 mg/kg, iv or 10 mg/kg, po; type: ADME, organism-based; details: in vivo
[5] = Volume of distribution at steady state in Sprague-Dawley rat at 1 mg/kg, iv or 10 mg/kg, po; type: ADME, organism-based; details: in vivo, read-out: Vdss
[6] = AUC (0 to infinity) in Sprague-Dawley rat at 1 mg/kg, iv or 10 mg/kg, po; type: ADME, organism-based; details: plasma
[7] = tested on: HUVEC; experiment: Inhibition of VEGF-stimulated HUVEC cell proliferation treated before 2 hrs of VEGF challenge assessed after 72 hrs; type: functional, cell-based; details: Homo sapiens
[8] = Bioavailability in Sprague-Dawley rat at 1 mg/kg, iv or 10 mg/kg, po; type: ADME, organism-based; details: in vivo
[9] = molecular target: Hepatocyte growth factor receptor (Homo sapiens, UniProt P08581); experiment: Inhibition of cMET
[10] = tested on: Mus musculus; experiment: Plasma concentration in mouse VEGF expressing HEK293 cells xenografted in athymic nude mouse at 10 mg/kg, po; type: ADME, organism-based; design: dose 10 mg/kg, route oral; details: in vivo
[11] = molecular target: T1, Aurora kinase A (Homo sapiens, UniProt O14965); experiment: Inhibition of aurora 2 kinase
T1 sequence (O14965 whole entry): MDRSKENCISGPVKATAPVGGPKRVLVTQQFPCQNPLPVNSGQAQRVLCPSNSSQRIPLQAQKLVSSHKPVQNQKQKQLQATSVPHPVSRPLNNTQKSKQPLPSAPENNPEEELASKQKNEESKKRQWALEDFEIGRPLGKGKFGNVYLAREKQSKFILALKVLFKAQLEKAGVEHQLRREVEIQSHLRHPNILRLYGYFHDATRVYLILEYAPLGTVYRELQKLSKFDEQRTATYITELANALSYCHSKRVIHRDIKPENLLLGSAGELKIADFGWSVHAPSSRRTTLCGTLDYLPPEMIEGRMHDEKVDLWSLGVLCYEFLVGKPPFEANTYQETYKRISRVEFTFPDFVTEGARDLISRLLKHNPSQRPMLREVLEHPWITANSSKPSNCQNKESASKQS

[12] = tested on: HEK293; experiment: Inhibition of vascular permeability in mouse VEGF expressing HEK293 cells xenografted in po dosed athymic nude mouse; type: functional, organism-based; details: Homo sapiens
[13] = tested on: Mus musculus; experiment: Plasma concentration in mouse VEGF expressing HEK293 cells xenografted in athymic nude mouse at 30 mg/kg, po; type: ADME, organism-based; design: dose 30 mg/kg, route oral; details: in vivo
[14] = molecular target: Angiopoietin-1 receptor (Homo sapiens, UniProt Q02763); experiment: Inhibition of Tie 2
Angiopoietin-1 receptor, sequence (Q02763 whole entry): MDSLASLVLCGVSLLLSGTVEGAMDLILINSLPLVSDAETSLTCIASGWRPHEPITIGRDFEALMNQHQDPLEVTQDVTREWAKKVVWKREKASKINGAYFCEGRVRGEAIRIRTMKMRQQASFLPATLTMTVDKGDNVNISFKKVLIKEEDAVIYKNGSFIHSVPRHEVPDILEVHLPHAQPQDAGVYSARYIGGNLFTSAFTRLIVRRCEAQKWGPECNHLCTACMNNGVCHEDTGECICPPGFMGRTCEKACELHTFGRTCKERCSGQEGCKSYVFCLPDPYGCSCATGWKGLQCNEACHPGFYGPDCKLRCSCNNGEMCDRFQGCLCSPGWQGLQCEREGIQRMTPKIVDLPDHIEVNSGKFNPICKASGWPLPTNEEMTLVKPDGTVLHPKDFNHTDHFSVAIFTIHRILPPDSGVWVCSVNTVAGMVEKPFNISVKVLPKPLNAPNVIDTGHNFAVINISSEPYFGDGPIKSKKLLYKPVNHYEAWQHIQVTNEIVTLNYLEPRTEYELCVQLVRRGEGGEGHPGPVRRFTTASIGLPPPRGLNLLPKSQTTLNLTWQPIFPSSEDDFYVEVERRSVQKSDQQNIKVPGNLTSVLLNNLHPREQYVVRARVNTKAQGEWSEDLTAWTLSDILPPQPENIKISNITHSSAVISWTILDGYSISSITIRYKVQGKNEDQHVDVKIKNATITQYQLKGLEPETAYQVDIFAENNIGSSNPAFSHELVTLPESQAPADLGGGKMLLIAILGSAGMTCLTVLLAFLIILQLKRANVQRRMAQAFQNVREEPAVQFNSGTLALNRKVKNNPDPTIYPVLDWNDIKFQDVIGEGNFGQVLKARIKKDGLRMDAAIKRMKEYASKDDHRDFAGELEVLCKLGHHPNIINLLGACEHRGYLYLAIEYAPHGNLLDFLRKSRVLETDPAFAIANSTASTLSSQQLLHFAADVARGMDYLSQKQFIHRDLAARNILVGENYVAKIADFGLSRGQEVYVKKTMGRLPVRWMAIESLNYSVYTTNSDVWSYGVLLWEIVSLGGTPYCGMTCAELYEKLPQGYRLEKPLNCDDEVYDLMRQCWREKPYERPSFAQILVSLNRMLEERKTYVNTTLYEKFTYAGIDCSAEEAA

[15] = molecular target: Mitogen-activated protein kinase 14 (Homo sapiens, UniProt Q16539); experiment: Inhibition of p38alpha
Mitogen-activated protein kinase 14, sequence (Q16539 whole entry, canonical isoform): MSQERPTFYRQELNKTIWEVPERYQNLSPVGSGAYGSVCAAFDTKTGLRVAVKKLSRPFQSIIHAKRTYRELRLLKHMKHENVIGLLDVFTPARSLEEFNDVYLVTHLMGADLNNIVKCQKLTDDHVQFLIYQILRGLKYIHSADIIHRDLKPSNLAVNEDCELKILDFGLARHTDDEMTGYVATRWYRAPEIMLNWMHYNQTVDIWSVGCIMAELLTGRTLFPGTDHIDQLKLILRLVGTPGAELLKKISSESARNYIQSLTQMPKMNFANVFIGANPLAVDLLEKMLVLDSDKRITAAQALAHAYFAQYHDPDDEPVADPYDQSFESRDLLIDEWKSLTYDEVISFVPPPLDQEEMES

[16] = molecular target: Phosphatidylinositol 4,5-bisphosphate 3-kinase catalytic subunit alpha isoform (Homo sapiens, UniProt P42336); experiment: Inhibition of PI3K
Phosphatidylinositol 4,5-bisphosphate 3-kinase catalytic subunit alpha isoform, sequence (P42336 whole entry, canonical isoform): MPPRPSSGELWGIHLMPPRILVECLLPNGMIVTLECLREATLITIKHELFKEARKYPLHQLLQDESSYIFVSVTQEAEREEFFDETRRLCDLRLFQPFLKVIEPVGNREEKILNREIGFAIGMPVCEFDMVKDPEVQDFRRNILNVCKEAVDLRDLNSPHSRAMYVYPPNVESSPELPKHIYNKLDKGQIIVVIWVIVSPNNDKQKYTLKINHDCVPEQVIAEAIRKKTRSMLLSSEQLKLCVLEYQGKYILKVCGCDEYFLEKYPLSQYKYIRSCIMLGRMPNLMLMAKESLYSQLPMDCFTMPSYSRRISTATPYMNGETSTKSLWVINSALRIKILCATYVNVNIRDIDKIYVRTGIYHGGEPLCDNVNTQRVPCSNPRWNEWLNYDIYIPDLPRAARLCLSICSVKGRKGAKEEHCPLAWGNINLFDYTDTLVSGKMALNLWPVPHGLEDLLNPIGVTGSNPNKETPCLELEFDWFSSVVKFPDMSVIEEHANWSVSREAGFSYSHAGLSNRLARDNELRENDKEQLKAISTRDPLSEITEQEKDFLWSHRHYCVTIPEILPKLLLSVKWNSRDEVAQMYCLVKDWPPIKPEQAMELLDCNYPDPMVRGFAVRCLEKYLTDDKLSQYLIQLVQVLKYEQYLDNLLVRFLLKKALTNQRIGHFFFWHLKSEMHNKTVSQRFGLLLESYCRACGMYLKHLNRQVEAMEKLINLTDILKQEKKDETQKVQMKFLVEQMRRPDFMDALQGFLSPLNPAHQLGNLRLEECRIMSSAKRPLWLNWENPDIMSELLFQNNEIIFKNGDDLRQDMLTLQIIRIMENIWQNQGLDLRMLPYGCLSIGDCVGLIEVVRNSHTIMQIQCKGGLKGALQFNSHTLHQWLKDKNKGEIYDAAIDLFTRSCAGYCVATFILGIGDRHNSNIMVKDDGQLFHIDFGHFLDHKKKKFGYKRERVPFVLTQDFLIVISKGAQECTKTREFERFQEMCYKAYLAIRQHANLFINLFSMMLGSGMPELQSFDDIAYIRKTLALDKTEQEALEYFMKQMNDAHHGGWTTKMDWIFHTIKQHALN

[17] = molecular target: Aurora kinase B (Homo sapiens, UniProt Q96GD4); experiment: Inhibition of aurora 1 kinase
Aurora kinase B, sequence (Q96GD4 whole entry): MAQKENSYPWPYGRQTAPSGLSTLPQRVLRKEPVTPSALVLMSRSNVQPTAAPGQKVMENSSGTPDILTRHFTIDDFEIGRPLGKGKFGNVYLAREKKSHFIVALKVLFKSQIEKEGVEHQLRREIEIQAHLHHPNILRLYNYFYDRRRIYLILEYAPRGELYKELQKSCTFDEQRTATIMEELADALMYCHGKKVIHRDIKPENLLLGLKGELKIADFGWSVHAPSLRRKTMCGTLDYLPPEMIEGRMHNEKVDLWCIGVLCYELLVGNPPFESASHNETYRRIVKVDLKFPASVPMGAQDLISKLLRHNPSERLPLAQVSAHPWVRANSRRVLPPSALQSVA

Vascular endothelial growth factor receptor 2, sequence (P35968 whole entry): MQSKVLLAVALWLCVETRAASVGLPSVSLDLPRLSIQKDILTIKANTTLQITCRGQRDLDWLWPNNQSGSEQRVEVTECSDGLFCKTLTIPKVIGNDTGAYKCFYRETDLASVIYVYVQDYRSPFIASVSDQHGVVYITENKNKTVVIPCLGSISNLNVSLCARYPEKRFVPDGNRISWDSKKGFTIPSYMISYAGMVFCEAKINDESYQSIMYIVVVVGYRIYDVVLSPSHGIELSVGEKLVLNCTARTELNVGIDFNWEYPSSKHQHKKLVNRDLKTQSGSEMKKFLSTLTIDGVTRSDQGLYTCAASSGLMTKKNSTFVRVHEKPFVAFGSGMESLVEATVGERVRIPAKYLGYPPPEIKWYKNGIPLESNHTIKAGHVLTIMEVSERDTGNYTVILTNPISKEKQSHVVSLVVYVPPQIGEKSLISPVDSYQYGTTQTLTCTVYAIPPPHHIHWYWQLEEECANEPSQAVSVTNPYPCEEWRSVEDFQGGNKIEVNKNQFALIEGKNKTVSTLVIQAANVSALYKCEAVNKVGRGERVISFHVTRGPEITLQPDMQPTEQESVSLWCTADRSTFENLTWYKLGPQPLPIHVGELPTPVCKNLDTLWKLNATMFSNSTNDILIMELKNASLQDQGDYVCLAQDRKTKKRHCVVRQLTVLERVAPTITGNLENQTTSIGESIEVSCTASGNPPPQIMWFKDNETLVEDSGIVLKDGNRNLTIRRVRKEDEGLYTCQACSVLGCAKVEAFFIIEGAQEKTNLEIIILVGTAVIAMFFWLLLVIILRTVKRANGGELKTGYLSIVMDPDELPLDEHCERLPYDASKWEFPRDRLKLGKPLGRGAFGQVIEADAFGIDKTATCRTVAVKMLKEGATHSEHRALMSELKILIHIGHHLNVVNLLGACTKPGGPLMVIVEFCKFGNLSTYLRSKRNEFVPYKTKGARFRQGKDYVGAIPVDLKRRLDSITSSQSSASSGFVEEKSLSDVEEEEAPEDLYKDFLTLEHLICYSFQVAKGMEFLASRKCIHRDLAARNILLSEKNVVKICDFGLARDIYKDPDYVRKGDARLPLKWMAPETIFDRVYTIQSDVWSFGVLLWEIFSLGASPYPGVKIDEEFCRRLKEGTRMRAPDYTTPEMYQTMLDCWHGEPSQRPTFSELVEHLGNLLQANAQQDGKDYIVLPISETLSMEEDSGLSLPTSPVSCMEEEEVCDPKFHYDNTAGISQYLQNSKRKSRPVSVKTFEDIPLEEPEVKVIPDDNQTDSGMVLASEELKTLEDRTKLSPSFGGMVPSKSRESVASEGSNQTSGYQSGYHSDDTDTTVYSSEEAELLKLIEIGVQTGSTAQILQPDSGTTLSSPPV

| SMILES | IC50 [1] | IC50 [2] | IC50 [7] | other results |
| --- | --- | --- | --- | --- |
| COc1cc2nccc(Oc3ccc4c(N)nn(C)c4c3)c2cc1OC | 1700 nM | > 1000 nM |  |  |
| COc1cccc(Nc2nn(C)c3cc(Oc4ccnc5cc(OC)c(OC)cc45)ccc23)c1 | 230 nM | > 1000 nM |  |  |
| COc1cc2nccc(Oc3ccc4c(Nc5ccccc5)nn(C)c4c3)c2cc1OC | 270 nM | > 1000 nM |  |  |
| COc1cc2nccc(Oc3ccc4c(NC(=O)Nc5ccccc5)nn(C)c4c3)c2cc1OC | 2 nM | > 1000 nM | 6 nM | clearance [3]: 6.67 mL/min/kg; half-life [4]: 4.3 h; Vd [5]: 2 L/kg; AUC(0-inf) [6]: 121 ng·h/mL; bioavailability [8]: 2% |
| CCNc1nn(C)c2cc(Oc3ccnc4cc(OC)c(OC)cc34)ccc12 | 370 nM | > 1000 nM |  |  |
| COc1cc2nccc(Oc3ccc4c(Nc5ccc(C(F)(F)F)cc5)nn(C)c4c3)c2cc1OC | 70 nM | > 1000 nM |  |  |
| COc1cc2nccc(Oc3ccc4c(Nc5ccccc5)cccc4c3)c2cc1OC | 2 nM |  |  |  |
| COc1cc2nccc(Oc3ccc4c(NC(=O)Nc5ccc(C)cc5)nn(C)c4c3)c2cc1OC | 2 nM | > 1000 nM | 3 nM |  |
| COc1cc2nccc(Oc3ccc4c(NC(=O)c5cccc(C)c5)nn(C)c4c3)c2cc1OC | 2 nM | > 1000 nM | 2 nM | clearance [3]: 20 mL/min/kg; half-life [4]: 2.7 h; Vd [5]: 2.4 L/kg; AUC(0-inf) [6]: 153 ng·h/mL; bioavailability [8]: 12% |
| CCCNc1nn(C)c2cc(Oc3ccnc4cc(OC)c(OC)cc34)ccc12 | 1110 nM | > 1000 nM |  |  |
| COc1cc2nccc(Oc3ccc4c(NC(=O)c5cc(C(F)(F)F)cc(C(F)(F)F)c5)nn(C)c4c3)c2cc1OC | 2 nM | > 1000 nM | 58 nM |  |
| COc1cc2nccc(Oc3ccc4c(NC(=O)Nc5ccc(C(F)(F)F)cc5Cl)nn(C)c4c3)c2cc1OC | 8 nM | > 1000 nM | 1150 nM |  |
| COc1ccccc1Nc1cccc2cc(Oc3ccnc4cc(OC)c(OC)cc34)ccc12 | 1 nM |  |  |  |
| COc1ccc(Nc2nn(C)c3cc(Oc4ccnc5cc(OC)c(OC)cc45)ccc23)cc1 | 160 nM | > 1000 nM |  |  |
| COc1cc2nccc(Oc3ccc4c(NC(=O)c5cc(Cl)ccn5)nn(C)c4c3)c2cc1OC | 2 nM | > 1000 nM | 27 nM |  |
| COc1cc2nccc(Oc3ccc4c(NCc5ccccc5)nn(C)c4c3)c2cc1OC | 60 nM | > 1000 nM |  |  |
| COc1cc2nccc(Oc3ccc4c(NC(=O)c5ccc(Cl)cc5)nn(C)c4c3)c2cc1OC | 5 nM | > 1000 nM | 61 nM |  |
| COc1cc2nccc(Oc3ccc4c(NC(=O)c5ccc(F)c(Cl)c5)nn(C)c4c3)c2cc1OC | 3 nM | > 1000 nM | 9 nM | clearance [3]: 21.7 mL/min/kg; half-life [4]: 1.5 h; Vd [5]: 2.1 L/kg |
| COc1cc2nccc(Oc3ccc4c(NC(=O)c5ccc(C(F)(F)F)cc5)nn(C)c4c3)c2cc1OC | 3 nM | > 1000 nM | 79 nM |  |
| COc1cc2nccc(Oc3ccc4c(NC(=O)C5CC5)nn(C)c4c3)c2cc1OC | 344 nM | > 1000 nM |  |  |
| CCCCNc1nn(C)c2cc(Oc3ccnc4cc(OC)c(OC)cc34)ccc12 | 800 nM | > 1000 nM |  |  |
| COc1ccc(NC(=O)Nc2nn(C)c3cc(Oc4ccnc5cc(OC)c(OC)cc45)ccc23)cc1 | 1 nM | > 1000 nM | 7 nM |  |
| COc1ccc(C(=O)Nc2nn(C)c3cc(Oc4ccnc5cc(OC)c(OC)cc45)ccc23)cc1 | 3 nM | > 1000 nM | 32 nM |  |
| COc1cc2nccc(Oc3ccc4c(NC(=O)c5cccc(C(F)(F)F)c5)nn(C)c4c3)c2cc1OC | 1 nM | > 1000 nM | 9 nM | clearance [3]: 11.7 mL/min/kg; half-life [4]: 2.2 h; Vd [5]: 1.4 L/kg; IC50 [9]: 3320 nM; Cp [10]: 181 ng/mL; IC50 [11]: 764 nM; AUC(0-inf) [6]: 1530 ng·h/mL; bioavailability [8]: 46%; Activity [12]: Dose-dependent effect; Cp [13]: 347 ng/mL; IC50 [14]: 121 nM; IC50 [15]: 1650 nM; IC50 [16]: 3250 nM; IC50 [17]: 45 nM |
| COc1cc2nccc(Oc3ccc4c(NC(=O)c5ccccc5Cl)nn(C)c4c3)c2cc1OC | 8 nM | > 1000 nM |  |  |

From ChEMBL document CHEMBL1157345, “Evaluation of indazole-based compounds as a new class of potent KDR/VEGFR-2 inhibitors” (Bioorg Med Chem Lett, 2008)
